Earlier results, collected in patent US7288559B2, “Carboxamide spirohydantoin CGRP receptor antagonists” (Merck + Co, Inc., priority 2003, dated 2007).
No end group written: not given here.

What was measured:
rat = settings: trigeminal ganglion stimulation
rats = settings: electrical stimulation of the dura mater, prior administration
marmoset = settings: electrical stimulation of the trigeminal ganglion

Molecule	effect on increased facial blood flow (rat)	effect on increase of middle meningeal artery diameter (rats)	effect on increase in facial blood flow (marmoset)
CGRP(8-37): a peptide CGRP antagonist (VTHRLAGLLSRSGGVVKNNFVPTNVGSKAF; ends and bridges not checked; UniProt P06881 90-119, looked up, fragment)	inhibited	blocked	
NCCCC[C@H](NC(=O)[C@@H](Cc1cc(Br)c(O)c(Br)c1)NC(=O)N1CCC(N2Cc3ccccc3NC2=O)CC1)C(=O)N1CCN(c2ccncc2)CC1 [BIBN4096BS]			blocked
